Measurements from ChEMBL document CHEMBL3351732, “Potent bisimidazole-based HCV NS5A inhibitors bearing annulated tricyclic motifs” (Bioorg Med Chem Lett, 2014).

Tests used:
[1] = AUC(last) in beagle dog at 5 mg/kg, po; type: ADME, organism-based, Canis lupus familiaris; parameters: time 0 - last, dose 5 mg/kg, route oral; details: plasma
[2] = Clearance in cynomolgus monkey at 1 mg/kg, iv; type: ADME, organism-based, Macaca fascicularis; parameters: dose 1 mg/kg, route intravenous; details: in vivo
[3] = AUC(last) in cynomolgus monkey at 75 mg/kg, po; type: ADME, organism-based, Macaca fascicularis; parameters: time 0 - last, dose 75 mg/kg, route oral; details: plasma
[4] = Cmax in Sprague-Dawley rat at 5 mg/kg, po; type: ADME, organism-based; parameters: dose 5 mg/kg, route oral; details: in vivo
[5] = Cmax in beagle dog at 250 mg/kg, po; type: ADME, organism-based, Canis lupus familiaris; parameters: dose 250 mg/kg, route oral; details: in vivo
[6] = Tmax in cynomolgus monkey at 75 mg/kg, po; type: ADME, organism-based, Macaca fascicularis; parameters: dose 75 mg/kg, route oral; details: in vivo
[7] = Oral bioavailability in Sprague-Dawley rat at 5 mg/kg formulated with 5%MC, 95% saline; type: ADME, organism-based; details: in vivo
[8] = AUC(last) in beagle dog at 250 mg/kg, po; type: ADME, organism-based, Canis lupus familiaris; parameters: dose 250 mg/kg, route oral, time 0 - last; details: plasma
[9] = tested on: Hepatitis C virus; test: Antiviral activity against HCV genotype 1a infected in human HuH7 cells by luciferase reporter gene assay; type: functional, cell-based, Hepacivirus hominis; details: subtype 1a, Huh-7
[10] = Cmax in beagle dog at 5 mg/kg, po; type: ADME, organism-based, Canis lupus familiaris; parameters: dose 5 mg/kg, route oral; details: in vivo
[11] = Tmax in Sprague-Dawley rat at 5 mg/kg, po; type: ADME, organism-based; parameters: dose 5 mg/kg, route oral; details: in vivo
[12] = Tmax in cynomolgus monkey at 5 mg/kg, po; type: ADME, organism-based, Macaca fascicularis; parameters: dose 5 mg/kg, route oral; details: in vivo
[13] = Plasma concentration in Sprague-Dawley rat at 5 mg/kg, po measured 4 hrs post dose; type: ADME, organism-based; parameters: dose 5 mg/kg, route oral
[14] = Tmax in Sprague-Dawley rat at 75 mg/kg, po; type: ADME, organism-based; parameters: dose 75 mg/kg, route oral; details: in vivo
[15] = Half life in cynomolgus monkey at 1 mg/kg, iv; type: ADME, organism-based, Macaca fascicularis; parameters: dose 1 mg/kg, route intravenous; details: in vivo
[16] = Tmax in Sprague-Dawley rat at 5 mg/kg, po formulated with 5%MC, 95% saline; type: ADME, organism-based; parameters: dose 5 mg/kg, route oral; details: in vivo
[17] = Cmax in Sprague-Dawley rat at 250 mg/kg, po; type: ADME, organism-based; parameters: dose 250 mg/kg, route oral; details: in vivo
[18] = Tmax in cynomolgus monkey at 250 mg/kg, po; type: ADME, organism-based, Macaca fascicularis; parameters: dose 250 mg/kg, route oral; details: in vivo
[19] = Cmax in beagle dog at 75 mg/kg, po; type: ADME, organism-based, Canis lupus familiaris; parameters: dose 75 mg/kg, route oral; details: in vivo
[20] = AUC(last) in Sprague-Dawley rat at 5 mg/kg, po formulated with 5%MC, 95% saline; type: ADME, organism-based; parameters: time 0 - last, dose 5 mg/kg, route oral; details: plasma
[21] = Oral bioavailability in Sprague-Dawley rat at 5 mg/kg; type: ADME, organism-based; details: in vivo
[22] = Oral bioavailability in beagle dog at 5 mg/kg; type: ADME, organism-based, Canis lupus familiaris; details: in vivo
[23] = tested on: Hepatitis C virus; test: Antiviral activity against HCV genotype 5a infected in human HuH7 cells by luciferase reporter gene assay; type: functional, cell-based, Hepacivirus hominis; details: Huh-7
[24] = Volume of distribution at steady state in beagle dog at 1 mg/kg, iv; type: ADME, organism-based, Canis lupus familiaris; parameters: dose 1 mg/kg, route intravenous; details: in vivo, read-out: Vdss
[25] = tested on: Hepatitis C virus; test: Antiviral activity against HCV genotype 3a infected in human HuH7 cells by luciferase reporter gene assay; type: functional, cell-based, Hepacivirus hominis; details: Huh-7
[26] = Drug level in Sprague-Dawley rat liver at 5 mg/kg, po measured 4 hrs post dose; type: ADME, organism-based; parameters: dose 5 mg/kg, route oral; details: read-out: Drug uptake
[27] = Tmax in Sprague-Dawley rat at 250 mg/kg, po; type: ADME, organism-based; parameters: dose 250 mg/kg, route oral; details: in vivo
[28] = Half life in Sprague-Dawley rat at 1 mg/kg, iv; type: ADME, organism-based; parameters: dose 1 mg/kg, route intravenous; details: in vivo
[29] = Tmax in beagle dog at 5 mg/kg, po; type: ADME, organism-based, Canis lupus familiaris; parameters: dose 5 mg/kg, route oral; details: in vivo
[30] = AUC(last) in cynomolgus monkey at 1 mg/kg, iv; type: ADME, organism-based, Macaca fascicularis; parameters: time 0 - last, dose 1 mg/kg, route intravenous; details: plasma
[31] = AUC(last) in Sprague-Dawley rat at 5 mg/kg, po; type: ADME, organism-based; parameters: dose 5 mg/kg, route oral, time 0 - last; details: plasma
[32] = Half life in beagle dog at 1 mg/kg, iv; type: ADME, organism-based, Canis lupus familiaris; parameters: dose 1 mg/kg, route intravenous; details: in vivo
[33] = AUC(last) in Sprague-Dawley rat at 250 mg/kg, po; type: ADME, organism-based; parameters: time 0 - last, dose 250 mg/kg, route oral; details: plasma
[34] = Cmax in cynomolgus monkey at 250 mg/kg, po; type: ADME, organism-based, Macaca fascicularis; parameters: dose 250 mg/kg, route oral; details: in vivo
[35] = Volume of distribution at steady state in Sprague-Dawley rat at 1 mg/kg, iv; type: ADME, organism-based; parameters: dose 1 mg/kg, route intravenous; details: in vivo, read-out: Vdss
[36] = Volume of distribution at steady state in cynomolgus monkey at 1 mg/kg, iv; type: ADME, organism-based, Macaca fascicularis; parameters: dose 1 mg/kg, route intravenous; details: in vivo, read-out: Vdss
[37] = tested on: Hepatitis C virus; test: Antiviral activity against HCV genotype 4a infected in human HuH7 cells by luciferase reporter gene assay; type: functional, cell-based, Hepacivirus hominis; details: Huh-7
[38] = Cmax in cynomolgus monkey at 5 mg/kg, po; type: ADME, organism-based, Macaca fascicularis; parameters: dose 5 mg/kg, route oral; details: in vivo
[39] = Tmax in beagle dog at 75 mg/kg, po; type: ADME, organism-based, Canis lupus familiaris; parameters: dose 75 mg/kg, route oral; details: in vivo
[40] = Cmax in Sprague-Dawley rat at 5 mg/kg, po formulated with 5%MC, 95% saline; type: ADME, organism-based; parameters: dose 5 mg/kg, route oral; details: in vivo
[41] = Clearance in Sprague-Dawley rat at 1 mg/kg, iv; type: ADME, organism-based; parameters: dose 1 mg/kg, route intravenous; details: Sprague-Dawley, in vivo
[42] = AUC(last) in cynomolgus monkey at 250 mg/kg, po; type: ADME, organism-based, Macaca fascicularis; parameters: time 0 - last, dose 250 mg/kg, route oral; details: plasma
[43] = Oral bioavailability in cynomolgus monkey at 5 mg/kg; type: ADME, organism-based, Macaca fascicularis; details: in vivo
[44] = AUC(last) in cynomolgus monkey at 5 mg/kg, po; type: ADME, organism-based, Macaca fascicularis; parameters: time 0 - last, dose 5 mg/kg, route oral; details: plasma
[45] = Tmax in beagle dog at 250 mg/kg, po; type: ADME, organism-based, Canis lupus familiaris; parameters: dose 250 mg/kg, route oral; details: in vivo
[46] = Cmax in Sprague-Dawley rat at 75 mg/kg, po; type: ADME, organism-based; parameters: dose 75 mg/kg, route oral; details: in vivo
[47] = tested on: Hepatitis C virus; test: Antiviral activity against HCV genotype 6a infected in human HuH7 cells by luciferase reporter gene assay; type: functional, cell-based, Hepacivirus hominis; details: Huh-7
[48] = tested on: Hepatitis C virus; test: Antiviral activity against HCV genotype 1b infected in human HuH7 cells by luciferase reporter gene assay; type: functional, cell-based, Hepacivirus hominis; details: Huh-7
[49] = AUC(last) in beagle dog at 75 mg/kg, po; type: ADME, organism-based, Canis lupus familiaris; parameters: time 0 - last, dose 75 mg/kg, route oral; details: plasma
[50] = Cmax in cynomolgus monkey at 75 mg/kg, po; type: ADME, organism-based, Macaca fascicularis; parameters: dose 75 mg/kg, route oral; details: in vivo
[51] = AUC(last) in beagle dog at 1 mg/kg, iv; type: ADME, organism-based, Canis lupus familiaris; parameters: time 0 - last, dose 1 mg/kg, route intravenous; details: plasma
[52] = AUC(last) in Sprague-Dawley rat at 1 mg/kg, iv; type: ADME, organism-based, Plasma; parameters: time 0 - last, dose 1 mg/kg, route intravenous; details: Sprague-Dawley, plasma
[53] = AUC(last) in Sprague-Dawley rat at 75 mg/kg, po; type: ADME, organism-based; parameters: time 0 - last, dose 75 mg/kg, route oral; details: plasma
[54] = Clearance in beagle dog at 1 mg/kg, iv; type: ADME, organism-based, Canis lupus familiaris; parameters: dose 1 mg/kg, route intravenous; details: in vivo

`COC(=O)N[C@H](C(=O)N1CCC[C@H]1c1ncc(-c2ccc3c(c2)Oc2ccc(-c4cnc([C@@H]5CCCN5C(=O)[C@@H](NC(=O)OC)C(C)C)[nH]4)cc2C3(C)C)[nH]1)C(C)C` gave an AUC(0-t) [1] of 16500 ng·h/mL, a clearance [2] of 7 mL/min/kg and an AUC(0-t) [3] of 17800 ng·h/mL. For the same molecule, the Cmax [4] was 874 ng/mL, the Cmax [5] was 12200 ng/mL and the Tmax [6] was 3 h. For the same molecule, the bioavailability [7] was 88.9%, the AUC(0-t) [8] was 192000 ng·h/mL and the EC50 [9] was 0.073 nM. For the same molecule, the Cmax [10] was 2760 ng/mL, the Tmax [11] was 3 h and the Tmax [12] was 3 h. It also gave a concentration at 4 h [13] of 833 ng/mL, a Tmax [14] of 4 h and a half-life [15] of 3.56 h. The Tmax [16] was 0.5 h, the Cmax [17] was 16200 ng/mL and the Tmax [18] was 4 h. For the same molecule, the Cmax [19] was 6400 ng/mL, the AUC(0-t) [20] was 4120 ng·h/mL and the bioavailability [21] was 112%. For the same molecule, the bioavailability [22] was 53.4%, the EC50 [23] was 0.017 nM and the Vd [24] was 0.74 L/kg. For the same molecule, the EC50 [25] was 0.29 nM, the concentration at 4 h [26] was 2610 ng/mL and the Tmax [27] was 3.33 h. The half-life [28] was 1.41 h, the Tmax [29] was 1 h and the AUC(0-t) [30] was 2380 ng·h/mL. It also gave an AUC(0-t) [31] of 5250 ng·h/mL, a half-life [32] of 3.77 h and an AUC(0-t) [33] of 187000 ng·h/mL. For the same molecule, the Cmax [34] was 8100 ng/mL, the Vd [35] was 1.8 L/kg and the Vd [36] was 1.33 L/kg. For the same molecule, the EC50 [37] was 0.025 nM, the Cmax [38] was 486 ng/mL and the Tmax [39] was 4 h. For the same molecule, the Cmax [40] was 761 ng/mL, the clearance [41] was 17.8 mL/min/kg and the AUC(0-t) [42] was 46600 ng·h/mL. The bioavailability [43] was 28.4%, the AUC(0-t) [44] was 3370 ng·h/mL and the Tmax [45] was 5 h. It also gave a Cmax [46] of 12400 ng/mL, an EC50 [47] of 0.062 nM and an EC50 [48] of 0.011 nM. It also gave an AUC(0-t) [49] of 83000 ng·h/mL, a Cmax [50] of 3600 ng/mL and an AUC(0-t) [51] of 6180 ng·h/mL. It also gave an AUC(0-t) [52] of 926 ng·h/mL, an AUC(0-t) [53] of 137000 ng·h/mL and a clearance [54] of 2.67 mL/min/kg.
